# In paper PMC8734228 (Cancer discovery, 2021):
# Where two headings read alike, the source gives them in different places.
# Tests used:
# FLC5 cells = experiment: Anchor screen, synergy assay; format: cell-based, human; details: FLC5, ZIP, Bliss and HSA scores
# mTOR = details: read-out: IC50 mTOR; cited from earlier work
# FLC PDX cells = experiment: Validation screen on cells dissociated from FLC PDX; format: cell-based, human; details: for Effect on FLC PDX cells in vitro (dose response, normalized percent survival): 10nM-10μM, FLC1-6; for Effect on FLC PDX cells in vitro (dose response, normalized percent survival) / EC50: 72 h; for Efficacy ranking in the screen: ranked by average −log10EC50 for FLC1-5 minus −log10EC50 for PHH; for Therapeutic window for FLC over PHH: FLC PDX cells compared with PHH
# [1] = system: cells dissociated directly from patient tumors (FLC.T6-T11); experiment: Direct from patient in vitro screening; format: cell-based, human; details: for Sensitivity of cells tested directly from patients: 10μM-10nM, 72h, Cell Titer Glo; for Drug sensitivity of FLC.T6 compared with derived PDX FLC6 (EC50): cells direct from patient tumor vs cells from its PDX
# ErbB2 = details: read-out: IC50 ErbB2; cited from earlier work
# EGFR = details: read-out: IC50 EGFR; cited from earlier work
# AURKA = details: read-out: IC50 AURKA; cited from earlier work
# FLC1 cells = experiment: Role of ROS: survival with or without N-acetyl cysteine 10mM; format: cell-based, human; details: NAC 10mM, 72 h
# [2] = system: primary human hepatocytes (PHH); experiment: Validation counter-screen on primary human hepatocytes; details: 72 h; for EC50: read-out: EC50 PHH; for Effect on PHH (dose response, normalized percent survival): up to 10 μM
# PI3K (p110α)/DNA-PK = details: read-out: IC50 PI3K (p110α)/DNA-PK; cited from earlier work
# PKG = details: read-out: Ki against other kinases: PKG; cited from earlier work
# FLC5 PDX cells = experiment: Validation screen, 11-point dose response, 72 h, Cell Titer Glo; format: cell-based, human; details: read-out: EC50 FLC
# FLC3 PDX cells = experiment: as above; format: cell-based, human; details: read-out: EC50 FLC
# PKA = details: read-out: Ki PKA; cited from earlier work
# FLC1 PDX cells = experiment: Validation screen, 11-point dose response, 72 h, Cell Titer Glo; format: cell-based, human; details: read-out: EC50 FLC
# FLC4 PDX cells = experiment: as above; format: cell-based, human; details: read-out: EC50 FLC
# FLC2 PDX cells = experiment: as above; format: cell-based, human; details: read-out: EC50 FLC
# FLC1,3,5 cells = experiment: Synergy assay, combination matrix with panobinostat; format: cell-based, human
# FLC patients = details: two FLC patients, clinical trial ref 10; cited from earlier work
# PAK 1 = details: read-out: IC50 PAK 1; cited from earlier work
# PAK 3 = details: read-out: IC50 PAK 3; cited from earlier work
# PAK 2 = details: read-out: IC50 PAK 2; cited from earlier work
# [3] = system: cells dissociated from PDX FLC1 and FLC5; experiment: Primary high throughput screen, 1μM, 72 h; format: cell-based, human; details: pass = survival <60%
# FLC1 PDX = experiment: In vivo drug testing in mice bearing PDX FLC1
# [4] = system: eIF4F sensitive proteins in FLC6 cells; experiment: Immunoblot of eIF4F sensitive protein levels; format: cell-based, human
# FLC PDX = experiment: In vivo drug testing of HDAC inhibitors in mice bearing PDX
# Akt1 = details: read-out: Ki against other kinases: Akt1; cited from earlier work
# Akt3 = details: read-out: Ki against other kinases: Akt3; cited from earlier work
# [5] = napabucasin 10mg/kg IP, 5 days on 2 days off, FLC1
# [6] = napabucasin 10mg/kg IP, 14 days
# [7] = napabucasin 10mg/kg, after 14 days
compound,measurement,setting,value
CO[C@H]1C[C@@H]2CC[C@@H](C)[C@@](O)(O2)C(=O)C(=O)N2CCCC[C@H]2C(=O)O[C@H]([C@H](C)C[C@@H]2CC[C@@H](OCCO)[C@H](OC)C2)CC(=O)[C@H](C)/C=C(\C)[C@@H](O)[C@@H](OC)C(=O)[C@H](C)C[C@H](C)/C=C/C=C/C=C/1C [everolimus],Synergy with A1331852,FLC5 cells,some synergy
same,IC50,mTOR,1.6 to 2.4 nM
CC(=O)[C@]1(O)Cc2c(O)c3c(c(O)c2[C@@H](O[C@H]2C[C@H](N)[C@H](O)[C@H](C)O2)C1)C(=O)c1ccccc1C3=O [idarubicin],"Effect on FLC PDX cells in vitro (dose response, normalized percent survival)",FLC PDX cells,showed an effect on some of the FLC PDX
same,Synergy with A1331852,FLC5 cells,some synergy
CCOc1cc2ncc(C#N)c(Nc3ccc(OCc4ccccn4)c(Cl)c3)c2cc1NC(=O)/C=C/CN(C)C [Neratinib],Sensitivity of cells tested directly from patients,[1],no effect on three others
same,Drug sensitivity of FLC.T6 compared with derived PDX FLC6 (EC50),[1],correlated well
same,"Effect on FLC PDX cells in vitro (dose response, normalized percent survival)",FLC PDX cells,"affected FLC1,5 in the micromolar range"
same,IC50,ErbB2,59 nM
same,IC50,EGFR,92 nM
COCC(=O)NC/C=C/c1ccc2ncnc(Nc3ccc(Oc4ccc(C)nc4)c(C)c3)c2c1 [CP-724714],"Effect on FLC PDX cells in vitro (dose response, normalized percent survival)",FLC PDX cells,no effect
same,IC50,ErbB2,10 nM
Cc1cc(Nc2cc(N3CCN(C)CC3)nc(/C=C/c3ccccc3)n2)n[nH]1 [ENMD-2076],EC50,"FLC PDX cells; Homo sapiens, read-out: EC50 against the PDX cells",> 5000 nM
same,Efficacy ranking in the screen,FLC PDX cells,123
same,Synergy with A1331852,FLC5 cells,"All drugs, apart from ENMD-2076 and uprosertib, showed some synergy"
Cc1ccc(NC2=CC(=O)c3sc(C)nc3C2=O)cc1 [ryuvidine],"Effect on FLC PDX cells in vitro (dose response, normalized percent survival)",FLC PDX cells,effective against all PDX lines
same,Efficacy ranking in the screen,FLC PDX cells,third
same,EC50,"FLC PDX cells; read-out: EC50 against FLC PDX in vitro, across all FLC PDX lines",20 to 200 nM
same,Effect of N-acetyl cysteine (NAC) on the toxicity of the drug,FLC1 cells,completely abrogated
same,EC50,[2],> 10000 nM
Cc1ccc([N+](=O)[O-])cc1S(=O)(=O)N(C)/N=C/c1cnc2ccc(Br)cn12 [PIK-75],Sensitivity of cells tested directly from patients,[1],sensitive
same,"Effect on FLC PDX cells in vitro (dose response, normalized percent survival)",FLC PDX cells,"potent against FLC1,4 relative to PHH"
same,IC50,PI3K (p110α)/DNA-PK,5.8 nM
O=S(=O)(NCCNC/C=C/c1ccc(Br)cc1)c1cccc2cnccc12 [H89],Ki,PKG,480 nM
same,EC50,"FLC5 PDX cells; FLC5, 72 h",9490 nM
same,EC50,"FLC3 PDX cells; FLC3, 72 h",18200 nM
same,Therapeutic window for FLC over PHH,FLC PDX cells,no therapeutic window
same,Ki,PKA,48 nM
same,EC50,"FLC1 PDX cells; FLC1, 72 h",5820 nM
same,EC50,"FLC4 PDX cells; FLC4, 72 h",20900 nM
same,EC50,[2],41500 nM
same,EC50,"FLC2 PDX cells; FLC2, 72 h",23900 nM
Cc1c(-c2ccc(N3CCc4cccc(C(=O)Nc5nc6ccccc6s5)c4C3)nc2C(=O)O)cnn1CC12CC3CC(CC(C3)C1)C2 [A1331852],Synergy with panobinostat (ZIP synergy score),"FLC1,3,5 cells",synergized
CN1CC[C@H](c2c(O)cc(O)c3c(=O)cc(-c4ccccc4Cl)oc23)[C@H](O)C1 [flavopiridol],Sensitivity of cells tested directly from patients,[1],some sensitivity
same,Duration of stable disease,FLC patients,17 months
same,"Effect on PHH (dose response, normalized percent survival)",[2],toxic
CCn1c(=O)c(-c2ccc(-c3cncs3)cc2Cl)cc2cnc(Nc3ccc(N4CCN(C)CC4)cc3)nc21 [FRAX567],"Effect on FLC PDX cells in vitro (dose response, normalized percent survival)",FLC PDX cells,consistent inhibition against all PDX
same,Efficacy ranking in the screen,FLC PDX cells,12
same,IC50,PAK 1,8 nM
same,IC50,PAK 3,19 nM
CC1(C)CCC(CN2CCN(c3ccc(C(=O)NS(=O)(=O)c4ccc(NCC5CCOCC5)c([N+](=O)[O-])c4)c(Oc4cnc5[nH]ccc5c4)c3)CC2)=C(c2ccc(Cl)cc2)C1 [venetoclax],"Effect on FLC PDX cells in vitro (dose response, normalized percent survival)",FLC PDX cells,minimal activity
same,Efficacy ranking in the screen,FLC PDX cells,towards the bottom of the ranking
same,Synergy with panobinostat (ZIP synergy score),"FLC1,3,5 cells",no synergy
"NC1(C(=O)N[C@@H](CCO)c2ccc(Cl)cc2)CCN(c2nc[nH]c3nccc2-3)CC1 [Capivasertib (AZD5363), Capivasertib]",EC50,"FLC5 PDX cells; FLC5, 72 h",12600 nM
same,EC50,"FLC3 PDX cells; FLC3, 72 h",5150 nM
same,EC50,"FLC1 PDX cells; FLC1, 72 h",2980 nM
same,EC50,"FLC4 PDX cells; FLC4, 72 h",2090 nM
same,EC50,[2],> 10000 nM
same,EC50,"FLC2 PDX cells; FLC2, 72 h",3850 nM
CC[C@@]1(O)C(=O)OCc2c1cc1n(c2=O)Cc2cc3c(CN(C)C)c(O)ccc3nc2-1 [topotecan],Synergy with A1331852,FLC5 cells,some synergy
Aurora Kinase Inhibitor I,EC50,FLC PDX cells; read-out: EC50 against the PDX cells,1000 to 4000 nM
same,IC50,AURKA,3.4 nM
C=CC(=O)N1CC/C(=C\c2ccc(F)c([N+](=O)[O-])c2)C(=O)/C(=C/c2ccc(F)c([N+](=O)[O-])c2)C1 [VLX1570],Sensitivity of cells tested directly from patients,[1],blunted response
same,Drug sensitivity of FLC.T6 compared with derived PDX FLC6 (EC50),[1],outliers
same,Efficacy ranking in the screen,FLC PDX cells,31
same,Effect of N-acetyl cysteine (NAC) on the toxicity of the drug,FLC1 cells,completely abrogated
CC(=O)Nc1cccc(-n2c(=O)n(C3CC3)c(=O)c3c(Nc4ccc(I)cc4F)n(C)c(=O)c(C)c32)c1 [trametinib],Result in primary screen (normalized percent survival),[3],None
same,Synergy with A1331852,FLC5 cells,some synergy
CNC(=O)c1cccc(-c2ccc3c(N4CCOC[C@@H]4C)nc(N4CCOC[C@@H]4C)nc3n2)c1 [visusertib],Synergy with A1331852,FLC5 cells,some synergy
CC(=O)c1cc2c(o1)C(=O)c1ccccc1C2=O [napabucasin],Sensitivity of cells tested directly from patients,[1],sensitive
same,Drug sensitivity of FLC.T6 compared with derived PDX FLC6 (EC50),[1],correlated well
same,Tumor growth at 7 days,FLC1 PDX; [5],44%
same,Tumor growth at 14 days,FLC1 PDX; [5],52%
same,Average weight loss,FLC1 PDX; [6],6.7%
same,Ratio of tumor volume:mouse weight,FLC1 PDX; [6],stable or decreased
same,"Mitotic figures, Ki67 and pHH3 positive cells in tumors",FLC1 PDX; [7],decrease
same,TUNEL positive cells in tumors,FLC1 PDX; [7],small increase
same,Effect of N-acetyl cysteine (NAC) on the toxicity of the drug,FLC1 cells,partially attenuated
same,"Effect on PHH (dose response, normalized percent survival)",[2],no detectable effect
same,c-Myc levels,"[4]; 1 μM napabucasin, FLC cells, GAPDH control",dramatic decrease
same,"Levels of MDM2, Bcl-xL, MCL1 and Cyclin D1","[4]; napabucasin 1μM or 2μM, FLC6 cells",lowered the levels
Cc1c2c(nn1C)CSCc1cc(n(C)n1)CSc1cc(c3ccccc3c1)OCCCc1c(C(=O)O)n(C)c3c-2c(Cl)ccc13 [AZD5991],Synergy with panobinostat (ZIP synergy score),"FLC1,3,5 cells",more modest synergy
SBI-0640756,Sensitivity of cells tested directly from patients,[1],sensitive
same,Therapeutic window for FLC over PHH,FLC PDX cells,clear therapeutic window
same,Efficacy ranking in the screen,FLC PDX cells,19
same,Effect of N-acetyl cysteine (NAC) on the toxicity of the drug,FLC1 cells,completely abrogated
Cn1cc(CNCC2CCN(c3ncc(C(=O)NO)cn3)CC2)c2ccccc21 [quisinostat],Sensitivity of cells tested directly from patients,[1],sensitive
same,Effect of N-acetyl cysteine (NAC) on the toxicity of the drug,FLC1 cells,mildly attenuated
same,Tumor growth at 14 days,FLC PDX; 10mg/kg IP,7%
same,Apoptosis as assayed by TUNEL,"FLC PDX; 10mg/kg, after 14 days",no significant increase
same,"Mitotic figures, Ki67 and pHH3 positive cells in tumors","FLC PDX; 10mg/kg, after 14 days",almost complete disappearance
same,Macroscopic assessment of tumors,"FLC PDX; quisinostat 10mg/kg daily IP, 14 days",necrosis in the drug treated tumors
Cc1ccc(S(=O)(=O)c2ccc([N+](=O)[O-])o2)cc1 [NSC697923],Sensitivity of cells tested directly from patients,[1],blunted response
same,Drug sensitivity of FLC.T6 compared with derived PDX FLC6 (EC50),[1],outliers
same,Efficacy ranking in the screen,FLC PDX cells,7
same,Effect of N-acetyl cysteine (NAC) on the toxicity of the drug,FLC1 cells,completely abrogated
"Cn1ncc(Cl)c1-c1cc(C(=O)N[C@H](CN)Cc2ccc(F)c(F)c2)oc1Cl [Uprosertib (GSK2141795), Uprosertib]",Sensitivity of cells tested directly from patients,[1],some sensitivity
same,EC50,"FLC5 PDX cells; Homo sapiens, 72 h",1720 nM
same,EC50,"FLC3 PDX cells; Homo sapiens, 72 h",870 nM
same,Efficacy ranking in the screen,FLC PDX cells,28
same,Ki,PKA,2 nM
same,EC50,"FLC1 PDX cells; Homo sapiens, 72 h",49 nM
same,Ki,Akt1,180 nM
same,Ki,Akt3,38 nM
same,EC50,"FLC4 PDX cells; Homo sapiens, 72 h",910 nM
same,EC50,"[2]; Homo sapiens, Hepatocyte",> 10000 nM
same,Synergy with A1331852,FLC5 cells,"All drugs, apart from ENMD-2076 and uprosertib, showed some synergy"
same,Synergy with navitoclax,FLC5 cells,now synergized
same,EC50,"FLC2 PDX cells; Homo sapiens, 72 h",5040 nM
